{"source": "patent US9173875B2", "about": "“Treatment for nicotine-induced lung disease using peroxisome proliferator-activated receptor gamma agonists” (Los Angeles Biomedical Research Institute at Harbor-UCLA …, priority 2006, dated 2015)", "key": {"[1]": {"tested_on": "WI38 cells", "assay": "Triglyceride uptake assay ([3H]triolein) in WI38 cells", "assay_type": "cell-based, human", "experimental": "The human embryonic cell line WI38 was obtained from American Type Culture Collection (Rockville, Md.). Cells were grown in MEM plus 10% FBS at 37° C. in six-well plates, four-well slides, and 60- and 100-mm culture dishes as needed.\nThe method used to quantitate triglyceride uptake by fetal rat lung fibroblasts has been described previously (Torday et al. (1995) Biochim Biophys Acta 1254: 198-206). Briefly, culture medium was replaced with DMEM containing 20% adult rat serum mixed with [3H]triolein (5 μCi/ml). The cells were incubated at 37° C. in 5% CO2+balance air for 4 h. At the termination of the incubation, the medium was decanted, the cells were rinsed twice with 1 ml of ice-cold MEM, and the cells were removed from the culture plate after a 5- to 10-min incubation with 2 ml of a 0.05% trypsin solution. An aliquot of the cell suspension was taken for protein assay (Bradford (1976) Anal Biochem 72: 248-254), and the remaining cell suspension was extracted for neutral lipid content."}, "[2]": {"biological_target": "T1, PTHrP receptor (Homo sapiens, UniProt Q03431)", "T1 construct": "10-12 μg membrane protein; endogenous in cells; host or cells: WI38 human embryonic lung fibroblasts (inferred; the assay text only says membrane protein)", "T1 sequence (Q03431 27-593)": "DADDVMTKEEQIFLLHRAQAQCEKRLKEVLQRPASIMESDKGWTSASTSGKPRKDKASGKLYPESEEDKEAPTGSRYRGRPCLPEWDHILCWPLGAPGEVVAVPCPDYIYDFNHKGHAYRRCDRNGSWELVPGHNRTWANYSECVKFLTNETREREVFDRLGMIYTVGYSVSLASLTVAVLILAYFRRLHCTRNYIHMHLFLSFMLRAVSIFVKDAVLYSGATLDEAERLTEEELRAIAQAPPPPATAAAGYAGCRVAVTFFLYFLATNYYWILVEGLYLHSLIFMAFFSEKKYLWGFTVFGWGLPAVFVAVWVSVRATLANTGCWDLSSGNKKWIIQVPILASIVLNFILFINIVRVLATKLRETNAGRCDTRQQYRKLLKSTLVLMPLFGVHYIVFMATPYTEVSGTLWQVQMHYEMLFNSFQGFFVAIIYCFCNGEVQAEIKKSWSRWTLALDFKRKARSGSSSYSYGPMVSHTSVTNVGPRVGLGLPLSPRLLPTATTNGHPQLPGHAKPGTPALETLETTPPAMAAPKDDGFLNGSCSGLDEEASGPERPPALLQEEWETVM", "assay": "PTHrP receptor binding assay", "experimental": "The receptor binding assay was carried out as previously described (Torday and Rehan (2002) Am. J. Physiol. Lung Cell Mol. Physiol. 283: L130-L135; Torday and Rehan (2003) Cell Biochem Biophys 37: 235-246). The assay mixture, in a total volume of 0.1 ml, contained 50 mM Tris.HCl (pH 7.4), 2 mM dithiothreitol, 10 mM EDTA, 10 μg/ml each of protease inhibitors (leupeptin, pepstatin, antipain, and aprotinin), 0.5 mM phenylmethylsulfonyl fluoride, 10 mg/ml BSA, 5 mM MgCl2, […] [1251]-Tyr34-PTHrP-(1-34) (specific activity 1,064 Ci/mmol), 10-12 μg membrane protein, and 1×10-10 to 1×10^−6 M PTHrP-(1-34). Triplicate samples were incubated for 30 min at 30° C. Reactions were stopped by the addition of 0.1 ml of homogenization buffer containing 20 mg/ml of BSA and placed in ice-cold water for 30 min, followed by centrifugation at 15,000 g for 1 min. The supernatant was aspirated, and the pellet was counted for radioactive content with a gamma counter (model 1470; Wallace, Gaithersburg, Md.). Nonspecific binding was determined in the presence of 1 μM nonradioactive PTHrP-(1-34). Specific binding of [^125I]-Tyr34-PTHrP-(1-34) was calculated as total binding minus nonspecific binding and expressed as femtomoles per milligrams of protein. […] The effect of nicotine (1×10^−6 M) on PTHrP receptor binding was examined without and with the nACh receptor antagonists D-tubocurarine, α-bungarotoxin, or mecamylamine (1×10^−9 to 1×10^−6 M)."}, "[3]": {"tested_on": "ATII cells", "assay": "Western analysis of CCT-α and SP-B in ATII cells after in utero nicotine", "assay_type": "in vivo, Sprague-Dawley rat", "experimental": "Pathogen-free timed (embryonic day 0=day of mating) pregnant Sprague-Dawley rats (200-250 g body wt) were obtained from Charles River (Hollister, Calif.) at embryonic day 3 and allowed to acclimatize until embryonic day 6. […] The fetuses were extracted by cesarean section, and the lungs were snap frozen for later analysis or processed for ATII cell or fibroblast culture. […] Louis, Mo.; 0.25 mg/kg). All studies were approved by the Los Angeles Biomedical Research Institute Institutional Review Board and were conducted in accordance with the National Institutes of Health Guide for the Care and Use of Laboratory Animals. Protein extraction and Western blot analysis for SP-B and choline phosphate cytidylyltransferase-α (CCT-α) were performed using standard methods. […] Chemicon) overnight at 4° C. The antibody for CCT-α (1:2,000 dilution) was a kind gift from Dr. […] (University of Iowa, Iowa City, Iowa). […] The density of the SP-B and CCT-α bands was quantified using a scanning densitometer (Eagle Eye, Stratagene)."}, "[4]": {"tested_on": "ATII cells", "assay": "Phospholipid synthesis ([3H]choline incorporation into saturated phosphatidylcholine) by ATII cells after in utero nicotine", "assay_type": "in vivo, Sprague-Dawley rat", "method": "(§1) Incorporation of [methyl-3H]choline chloride (NEN Dupont) into saturated phosphatidylcholine was determined in monolayers of cultured explants and ATII cells. […] After incubation, explants and cells were washed three times with ice-cold PBS. The explants and the scraped cells were thoroughly homogenized, and the cellular lipids were extracted with chloroform-methanol (2:1) (Bligh and Dyer (1959) Can. J. Biochem. Physiol., 37: 911-917). The organic phase was dried under a stream of nitrogen at 60° C., resuspended in 0.5 ml of carbon tetrachloride containing 3.5 mg of osmium tetroxide, and left at room temperature for 15 min. The reaction mixture was redried under nitrogen and resuspended in 70 μl of chloroform-methanol (9:1, vol/vol). The lipid extracts were transferred to silica gel plates (Kodak, Rochester, N.Y.) and developed in a chloroform-methanolwater (65:25:4) solvent system. Pure dipalmitoyl phosphatidylcholine was used as the chromatographic standard. The developed plates were stained with bromothymol blue, blotted, and vacuum dried for 5 min at 90° C. Chromatogram spots corresponding to the migration of saturated phosphatidylcholine were scraped from the plates and counted by liquid scintillation spectrometry. The amounts of [methyl^3H]choline chloride incorporated into saturated phosphatidylcholine were expressed as disintegrations per minute per milligram of protein."}, "[5]": {"tested_on": "ATII cells", "assay": "Western analysis of CCT-α and SP-B in ATII cells treated in vitro", "assay_type": "cell-based, rat", "experimental": "Protein extraction and Western blot analysis for SP-B and choline phosphate cytidylyltransferase-α (CCT-α) were performed using standard methods. […] Equal amounts of the protein from the supernatant were dissolved in electrophoresis sample buffer and subjected to SDS-polyacrylamide (4-12% gradient) gel electrophoresis followed by electrophoretic transfer to a nitrocellulose membrane. The membrane was blocked with 5% milk in 1× Tris-buffered saline containing 0.1% Tween 20 for 1 h and then incubated with rabbit anti-human SP-B polyclonal antibody (1:1,000 dilution; Chemicon) overnight at 4° C. The antibody for CCT-α (1:2,000 dilution) was a kind gift from Dr. Mallampalli (University of Iowa, Iowa City, Iowa). Subsequently, the membrane was washed with 1× Tris-buffered saline+0.1% Tween 20 and incubated with a 1:3,000 dilution of anti-rabbit horseradish peroxidase-linked whole antibody immunoglobulin G (Amersham, Arlington Heights, Ill.) for 1 h at room temperature, washed again, and developed with a chemiluminescent substrate (ECL, Amersham) following the manufacturer's protocol. The density of the SP-B and CCT-α bands was quantified using a scanning densitometer (Eagle Eye, Stratagene)."}, "[6]": {"tested_on": "WI38 cells", "assay": "Reversal of nicotine-induced LIF-to-MYF transdifferentiation in WI38 cells, Western analysis", "conditions": "GW9662 1×10^−5 M pretreatment; nicotine 1×10^−9 M 7 days", "method": "The human embryonic cell line WI38 was obtained from the American Type Culture Collection (Rockville, Md.). Cells were grown in minimum essential medium (MEM) +10% fetal bovine serum at 37° C. in six-well plates, two well slides, and 60-mm and 100-mm culture dishes, as needed. […] Subsequently, the cells were treated with rosiglitazone (RGZ) (1×10^−5 M) (a PPARγ agonist), PTHrP (5×10^−7 M), or DBcAMP (1×10^−5 M) for 7 days, and the expression of PTHrP receptor, PPARγ, ADRP, calponin, and cSMA was determined by Western analysis and immunohistochemistry. Simultaneously, fibroblast function was characterized by measuring their capacity to take up triglycerides. Some experiments were performed in the presence of a specific PPARγ antagonist, GW9662. Medium containing fresh chemicals was added daily, and at the end of the experimental period the cells were processed as needed.\nFor Western blotting, cells were lysed using an extraction buffer [10 mM tris (hydroxymethyl) aminomethane (Tris, pH 7.5), 0.25 M sucrose, 1 mM EDTA, 5 mM benzamidine, 2 mM phenylmethylsulfonyl fluoride, and 10 (j.tg/ml each of pepstatin A, aprotinin, and leupeptin], and centrifuged at 140 g for 10 min (4° C.). Equal amounts of the protein (25 μg) from the supernatant were dissolved in electrophoresis sample buffer and were subjected to sodium dodecyl sulfate-polyacrylamide (4%-12% gradient) gel electrophoresis (SDS-PAGE) followed by electrophoretic transfer to a nitrocellulose memane. The nonspecific binding of antibody was blocked by washing with Tris-buffered saline (TBS) containing 0.1% Tween 20 (TBST) and 5% milk for 1 h. The blot was then subjected to two brief washes with TBST plus 0.5% Tween 20, incubated in TBST plus 0.1% Tween 20 and the specific primary antibodies (PPARγ 1:2000, Alexis Biochemicals, San Diego, Calif.; cSMA 1:50,000, Sigma, St. Louis, Mo.: ADRP 1:3000) overnight at 4° C. Blots were then washed in TBST plus 0.1% Tween 20 and then incubated for 1 h in secondary antibody, washed, and developed with a chemiluminescent substrate [enhanced chemiluminescence (ECL); Amersham, Arlington Heights, Ill.] following the manufacturer's protocol. The densities of the specific protein bands were quantified using a scanning densitometer (Eagle Eye II still video system, Stratagene, La Jolla, Calif.)."}, "[7]": {"tested_on": "fetal rat lung explants", "assay": "In vitro ATII cell proliferation in lung explants (PCNA and SP-C labeling)", "assay_type": "cell-based", "method": "Explants derived from three to five litters of rats were used for each experiment during the course of the studies. Lungs were harvested from fetal rats under sterile conditions. The lung tissue was chopped into −1-mm cubes and incubated in 0.5 ml of Waymouth's MB-252/1 medium containing penicillin (100 U/ml)-streptomycin (100 U/ml) and Fungizone (2.5 μg/ml) in six-well plates while rocking on an oscillating platform (3 cycles/min) in 5% CO2-95% air at 37° C. The explants were allowed to attach for 1-2 h.\nCultured ATII cells or explants were treated with nicotine under various experimental conditions (see below), and cell proliferation was determined by Cell Proliferation Assay (Promega) or dual PCNA and SP-C labeling, respectively (see above)."}, "[8]": {"tested_on": "fetal ATII cells", "assay": "Ex vivo ATII cell proliferation assay (tetrazolium dye) after in utero nicotine", "design": "species or system Sprague-Dawley rat", "experimental": "Pathogen-free timed (embryonic day 0=day of mating) pregnant Sprague-Dawley rats (200-250 g body wt) were obtained from Charles River (Hollister, Calif.) at embryonic day 3 and allowed to acclimatize until embryonic day 6. […] The fetuses were extracted by cesarean section, and the lungs were snap frozen for later analysis or processed for ATII cell or fibroblast culture. […] Louis, Mo.; 0.25 mg/kg). All studies were approved by the Los Angeles Biomedical Research Institute Institutional Review Board and were conducted in accordance with the National Institutes of Health Guide for the Care and Use of Laboratory Animals. ATII cells were isolated using differential adherence in monolayer culture, as described previously (Battenburg et al. (1990) Biochim. Biophys. Acta 960: 441-456). Briefly, three to five […] used per preparation. The fetuses were delivered via cesarean section, and fetal lungs were placed in Hanks' balanced salt solution without calcium and magnesium. […] A Teflon stirring bar was used to further dissociate the lungs by mechanical disruption of the tissue during incubation in a 37° C. water bath. After the tissue was dispersed into a unicellular suspension, the cells were pelleted at 500 g for 10 min at room temperature in a 50-ml polystyrene centrifuge tube. […] The cell suspension was then added to 75-cm^2 (T-75) culture flasks for 30-60 min to allow for differential adherence of lung fibroblasts. The unattached cells were then transferred to another T-75 culture flask for an additional 60 min. After this second culture period, the medium and nonadherent cells were removed from the flask and diluted with 1 vol of culture medium. This diluted suspension was cultured overnight in a T-75 culture flask at 37° C. in a CO2 incubator to allow the ATII cells to adhere. […] According to the manufacturer's protocol, cell proliferation was determined by the tetrazolium dye assay, which is based on the conversion of a tetrazolium salt to a red formazan product by living cells (Cell Proliferation Assay, Promega)."}, "[9]": {"tested_on": "fetal alveolar type II (ATII) cells", "assay": "In vivo ATII cell proliferation assay (PCNA and SP-C double labeling) after in utero nicotine", "design": "species or system Sprague-Dawley rat"}, "[10]": {"tested_on": "ATII cells", "assay": "Phospholipid synthesis ([3H]choline incorporation) by ATII cells treated in vitro", "assay_type": "cell-based, rat", "method": "Isolated ATII cells were cultured in DMEM+10% FBS in 6- and 96-well plates, 100-mm dishes, and T-75 flasks, as needed, and maintained at 37° C. in a humidified incubator containing 5% CO2-95% air. At 80-90% confluence, cells were processed for cell proliferation, differentiation, and metabolic studies (see below).\nas §1"}, "[11]": {"tested_on": "ATII cells", "conditions": "rat, in vivo"}}, "note": "Like-named read-outs stand apart in the source and are kept apart here.", "data": [{"compound": "COc1cc2c3cc1Oc1cc(ccc1O)C[C@@H]1c4c(cc(OC)c(O)c4Oc4ccc(cc4)C[C@@H]3N(C)CC2)CC[N+]1(C)C", "note": "[D-tubocurarine]", "values": [{"measurement": "prevention of nicotine-induced decrease in triolein uptake", "setting": "[1]", "result": "completely prevented"}, {"measurement": "prevention of nicotine-induced decrease in PTHrP binding to its receptor", "setting": "[2]", "result": "prevented"}]}, {"compound": "O=C(Nc1ccccc1)c1cc([N+](=O)[O-])ccc1Cl", "note": "[GW9662]", "values": [{"measurement": "effect on nicotine-induced increase (CCT-α experiment)", "setting": "[3]; PGJ2 alone or in combination with GW-9662, in vivo", "result": "no effect"}, {"measurement": "effect on nicotine-induced increase in SP-B protein expression", "setting": "[3]; concomitant treatment, in utero", "result": "no effect"}, {"measurement": "effect on nicotine-induced increase in phospholipid synthesis", "setting": "[4]; concomitant PGJ2 alone or in combination with GW-9662, in utero", "result": "no effect"}, {"measurement": "effect on nicotine-induced increase (CCT-α experiment)", "setting": "[5]; PGJ2 alone or in combination with GW-9662, in vitro", "result": "no effect"}, {"measurement": "effect on nicotine-induced increase in SP-B expression", "setting": "[5]; in vitro", "result": "unaffected"}, {"measurement": "block of molecular protection by PTHrP, DBcAMP and RGZ against nicotine-induced LIF-to-MYF transdifferentiation (PPARγ, calponin)", "setting": "[6]", "result": "completely blocked"}, {"measurement": "block of the PGJ2 effect in lung explants", "setting": "[7]; nicotine 24 h + PGJ2", "result": "blocked"}, {"measurement": "block of the PGJ2 effect", "setting": "[8]; nicotine + PGJ2", "result": "blocked"}, {"measurement": "block of the PGJ2 effect on nicotine-induced increase in ATII cell proliferation", "setting": "[9]; GW-9662 0.25 mg/kg pretreatment, nicotine + PGJ2", "result": "almost completely blocked"}, {"measurement": "block of the PGJ2 effect on nicotine-induced increase in ATII cell proliferation", "setting": "[9]; in utero nicotine + PGJ2", "result": 70, "unit": "%"}, {"measurement": "effect on nicotine-induced increase in phospholipid synthesis", "setting": "[10]; concomitant PGJ2 alone or in combination with GW-9662, in vitro", "result": "no effect"}]}, {"compound": "CCCCC[C@H](O)/C=C/[C@H]1C(=O)C=C[C@@H]1C/C=C\\CCCC(=O)O", "note": "[PGJ2, prostaglandin J2]", "values": [{"measurement": "effect on nicotine-induced increase (CCT-α experiment)", "setting": "[3]; rat, in vivo", "result": "no effect"}, {"measurement": "effect on nicotine-induced increase in SP-B protein expression", "setting": "[3]; rat, in vivo", "result": "no effect"}, {"measurement": "effect on nicotine-induced increase in phospholipid synthesis", "setting": "[4]; rat, in vivo", "result": "no effect"}, {"measurement": "effect on nicotine-induced increase (CCT-α experiment)", "setting": "[5]", "result": "no effect"}, {"measurement": "effect on nicotine-induced increase in SP-B expression", "setting": "[5]", "result": "unaffected"}, {"measurement": "block of nicotine-induced increase in ATII cell proliferation in lung explants", "setting": "[7]", "result": "blocked"}, {"measurement": "block of nicotine-induced increase in ATII proliferation", "setting": "[8]; rat, in vivo", "result": "almost completely blocked"}, {"measurement": "block of nicotine-induced increase in ATII cell proliferation", "setting": "[9]; rat, in vivo", "result": "completely blocked"}, {"measurement": "effect on nicotine-induced increase in phospholipid synthesis", "setting": "[10]", "result": "no effect"}, {"measurement": "block of nicotine-induced alterations in ribose synthesis", "setting": "[11]", "result": "completely blocked"}, {"measurement": "prevention of nicotine-induced changes in de novo palmitate synthesis and acetyl-CoA labeling", "setting": "[11]", "result": "completely prevented"}]}, {"compound": "CNC1(C)C2CCC(C2)C1(C)C", "note": "(centres unmarked) [mecamylamine]", "values": [{"measurement": "prevention of nicotine-induced decrease in triolein uptake", "setting": "[1]; nACh receptor antagonist 1×10^−9 or 1×10^−6 M", "result": "not"}, {"measurement": "prevention of nicotine-induced decrease in PTHrP binding to its receptor", "setting": "[2]; pretreatment with nACh receptor antagonist, nicotine 1×10^−6 M", "result": "not"}]}, {"compound": "PTHrP-(7-34) amide", "values": [{"measurement": "binding of radioactive ligand [125I]-Tyr34-PTHrP-(1-34)", "setting": "[2]; 1 μM", "result": "inhibited"}]}, {"compound": "α-bungarotoxin", "values": [{"measurement": "prevention of nicotine-induced decrease in triolein uptake", "setting": "[1]", "result": "completely prevented"}, {"measurement": "prevention of nicotine-induced decrease in PTHrP binding to its receptor", "setting": "[2]", "result": "prevented"}]}]}
